{
  "source": "patent US20220267753A1",
  "about": "“RATIONAL THERAPEUTIC TARGETING OF ONCOGENIC IMMUNE SIGNALING STATES IN MYELOID MALIGNANCIES VIA THE UBIQUITIN CONJUGATING ENZYME UBE2N” (CHILDREN'S HOSPITAL MEDICAL CENTER, priority 2019, published 2022)",
  "key": {"UBE2E1": {"molecular_target": "T1, UBE2E1 (Homo sapiens, UniProt P51965)", "T1 construct": "purchased Enzo Life Science BML-UW8710", "T1 sequence (P51965 whole entry)": "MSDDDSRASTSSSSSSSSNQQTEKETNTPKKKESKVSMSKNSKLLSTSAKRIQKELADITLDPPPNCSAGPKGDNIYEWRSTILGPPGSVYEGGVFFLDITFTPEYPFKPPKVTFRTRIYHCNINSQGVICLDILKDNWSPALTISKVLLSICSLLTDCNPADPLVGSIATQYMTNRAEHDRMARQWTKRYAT", "test": "Thioester bond formation assay", "details": "same biochemical assay", "experimental": "(§1) An in vitro Ubiquitin-E2 thioester (TE) bond formation assay was performed as described (Enzo Life Science, #BML-UW9920-0001, Farmingdale, N.Y.). The reaction was prepared as follows: 10×E2 (UBE2N/Mms2, No. BML-UW9565; UbcH5a, No. BML-UW9050; or UbcH6, Prod. No. BML-UW8710) were incubated with UC-764864 or UC-764865 at 1 or 2 μM for 30 minutes at room temperature. After the incubation period, the following reagents were added to the reaction: distilled water, 10× ubiquitination buffer, inorganic pyrophosphatase solution (100 U/mL in 20 mM Tris-HCl, pH 7.5, Sigma, 83205, St. Louis, Mo.), 50 mM DTT, 0.1 M Mg-ATP, 20×E1 (recombinant human ubiquitin-activating enzyme) and 20× biotinylated ubiquitin to a final volume of 10 p.l. The mixture was incubated for 4 hours at 37° C. The reaction was stopped by adding 10 p.l 2× non-reducing gel loading buffer. 15 p.l of the samples were run on SDS-PAGE gels and transferred to PVDF membrane. […] After washing the membrane for 6×10 mins with TBS-T on a rocking platform, total ubiquitin was detected with ECL detection reagent (Pierce™ ECL Western Blotting Substrate, #32106, Appleton, Wis.) according to the manufacturer's instructions. Detect emitted signal with Biorad ChemiDoc™ MP and analyzed with Image lab software 6.0.1 (Biorad, Hercules, Calif.) or Image J [67]. […]"}, "UBE2D1": {"molecular_target": "T2, UBE2D1 (Homo sapiens, UniProt P51668)", "T2 construct": "purchased Enzo Life Science BML-UW9050", "T2 sequence (P51668 whole entry)": "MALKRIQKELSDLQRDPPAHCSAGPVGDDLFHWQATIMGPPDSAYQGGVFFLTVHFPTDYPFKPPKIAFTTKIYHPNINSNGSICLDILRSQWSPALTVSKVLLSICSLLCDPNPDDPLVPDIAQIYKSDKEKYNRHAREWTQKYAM", "test": "Thioester bond formation assay", "details": "same biochemical assay", "experimental": "as §1"}, "MOLM-13 cells": {"tested_on": "MOLM-13 cells", "test": "Ubiquitin-enrichment screen by mass spectrometry", "type": "cell-based, human", "details": "2 μM", "experimental": "Details of the ubiquitin-enrichment screen are described herein. Briefly, MOLM-13 cells were treated for 24 hr. with 2 μM of UC-764864. Ubiquitin-related peptide enrichment was performed by using ubiquitin remnant motif (K-ε-GG) antibody-conjugated beads (Cell Signaling Technology, Danvers, Mass.) following the manufacturer's instructions. Tryptic peptides were loaded onto the beads, and then ubiquitin-conjugated peptides were eluted from the bead. Nanoliquid chromatography coupled to electrospray tandem mass spectrometry (nanoLC-ESI-MS/MS) analyses were performed on a TripleTof 5600+ mass spectrometer (Sciex; Concord, Ontario, Canada) coupled with a nanoLC-ultra nanoflow system (Eksigent; Dublin, Calif.) in data dependent acquisition (DDA) or data independent acquisition (DIA) modes for Sequential Window Acquisition of all Theoretical mass spectra (SWATH-MS) analysis.\nMOLM-13 cells were treated for 24 hours with 2 μM of UC-764864. […] To reduce redundant peptide sequencing, former MS/MS-analyzed candidate ions were excluded after its first occurrence for 12 s. The DDA data was recorded using Analyst-1T (v.1.7) software. […]"}},
  "data": [
    {"smiles": "CCc1ccc(C(=O)C=CSc2nc3ccc(C)cc3[nH]2)cc1", "note": "[UC-764864, 1-(4-ethylphenyl)-3-[(6-methyl-1H-benzimidazol-2-yl)sulfanyl]prop-2-en-1-one]", "values": [
      {"measurement": "interference with activity of UBE2E1", "setting": "UBE2E1", "value": "did not interfere"},
      {"measurement": "interference with activity of UBE2D1", "setting": "UBE2D1", "value": "did not interfere"},
      {"measurement": "ubiquitination levels of other Ub-conjugating enzymes", "setting": "MOLM-13 cells; MOLM-13", "value": "did not significantly alter"},
      {"measurement": "ubiquitination of UBE2N at Lys-92", "setting": "MOLM-13 cells; MOLM-13, P<0.01", "value": "significantly reduced"}
    ]}
  ]
}
